Test results published in ChEMBL document CHEMBL1154702, “Enhancement of the antimalarial activity of ciprofloxacin using a double prodrug/bioorganometallic approach” (J Med Chem, 2009).
Blank lines part the entries; values can stand above or below the molecule they belong to.

Experiments:
Plasmodium falciparum [1] = experiment: Antimalarial activity against Plasmodium falciparum 3D7; format: functional, organism-based
Plasmodium falciparum [2] = experiment: Antimalarial activity against Plasmodium falciparum NF54; format: functional, organism-based
Plasmodium falciparum [3] = experiment: Antimalarial activity against chloroquine-sensitive Plasmodium falciparum PA infected in erythrocytes after 48 hrs by [3H]hypoxanthine incorporation assay; format: functional, organism-based
[4] = Cytotoxicity against concanavalin-stimulated BALB/c mouse splenocytes after 72 hrs by resazurin dye reduction method; format: cell-based; conditions: Splenocyte
Plasmodium falciparum [5] = experiment: Antimalarial activity against chloroquine-sensitive Plasmodium falciparum 3D7 infected in erythrocytes after 48 hrs by [3H]hypoxanthine incorporation assay; format: functional, organism-based
Plasmodium falciparum [6] = experiment: Antimalarial activity against chloroquine-resistant Plasmodium falciparum W2 infected in erythrocytes after 96 hrs by [3H]hypoxanthine incorporation assay; format: functional, organism-based
Plasmodium falciparum [7] = experiment: Antimalarial activity against chloroquine-sensitive Plasmodium falciparum IMTL1 infected in erythrocytes after 48 hrs by [3H]hypoxanthine incorporation assay; format: functional, organism-based
Plasmodium falciparum [8] = experiment: Antimalarial activity against chloroquine-sensitive Plasmodium falciparum FCR3 infected in erythrocytes after 48 hrs by [3H]hypoxanthine incorporation assay; format: functional, cell-based; conditions: FCR-3/Gambia
Plasmodium falciparum [9] = experiment: Antimalarial activity against chloroquine-sensitive Plasmodium falciparum FCM29 infected in erythrocytes after 48 hrs by [3H]hypoxanthine incorporation assay; format: functional, organism-based
Plasmodium falciparum [10] = experiment: Antimalarial activity against chloroquine-resistant Plasmodium falciparum W2 infected in erythrocytes after 48 hrs by [3H]hypoxanthine incorporation assay; format: functional, organism-based
Plasmodium falciparum [11] = experiment: Antimalarial activity against chloroquine-sensitive Plasmodium falciparum 3D7 infected in erythrocytes after 96 hrs by [3H]hypoxanthine incorporation assay; format: functional, organism-based
Plasmodium falciparum [12] = experiment: Antimalarial activity against […] Plasmodium falciparum IMT K2 infected in erythrocytes after 48 hrs by [3H]hypoxanthine incorporation assay; format: functional, organism-based
Plasmodium falciparum [13] = experiment: Antimalarial activity against chloroquine-sensitive Plasmodium falciparum IMTVo1 infected in erythrocytes after 48 hrs by [3H]hypoxanthine incorporation assay; format: functional, organism-based
[14] = Therapeutic index, ratio of IC50 for concanavalin-stimulated BALB/c mice (Mus musculus) splenocytes to IC50 for Plasmodium falciparum 3D7; conditions: read-out: Ratio IC50
[15] = Therapeutic index, ratio of IC50 for concanavalin-stimulated BALB/c mice (Mus musculus) splenocytes to IC50 for Plasmodium falciparum W2 after 48 hrs; conditions: read-out: Ratio IC50
Plasmodium falciparum [16] = experiment: Antimalarial activity against chloroquine-sensitive Plasmodium falciparum IMT10500 infected in erythrocytes after 48 hrs by [3H]hypoxanthine incorporation assay; format: functional, organism-based

IC50 (Plasmodium falciparum [1]): ≥ 10 µM
IC50 (Plasmodium falciparum [2]): ≥ 10 µM
SMILES: COc1c(N2CCNC(C)C2)c(F)cc2c(=O)c(C(=O)O)cn(C3CC3)c12 (stereo unspecified) [GATIFLOXACIN]

SMILES: O=C(O)c1cn(C2CC2)c2cc(N3CCNCC3)c(F)cc2c1=O [CIPROFLOXACIN]
IC50 (Plasmodium falciparum [3]): 45.5 µM
IC50 [4]: > 40 µM
IC50 (Plasmodium falciparum [5]): 45.9 µM
IC50 (Plasmodium falciparum [6]): 14.1 µM
IC50 (Plasmodium falciparum [7]): 41.3 µM
IC50 (Plasmodium falciparum [8]): 74.3 µM
IC50 (Plasmodium falciparum [9]): 45.6 µM
IC50 (Plasmodium falciparum [10]): 119 µM
IC50 (Plasmodium falciparum [11]): 10.1 µM
IC50 (Plasmodium falciparum [12]): 80.8 µM
IC50 (Plasmodium falciparum [13]): 51.6 µM
selectivity ratio [14]: > 0.8
selectivity ratio at 48 h [15]: > 0.3
IC50 (Plasmodium falciparum [16]): 74.8 µM

SMILES: CCOC(=O)c1cn(C2CC2)c2cc(N3CCNCC3)c(F)cc2c1=O [CIPROFLOXACIN ETHYL ESTER]
IC50 [4]: > 40 µM
IC50 (Plasmodium falciparum [5]): 3.1 µM
IC50 (Plasmodium falciparum [1]): ≥ 10 µM
IC50 (Plasmodium falciparum [6]): 3.1 µM
IC50 (Plasmodium falciparum [10]): 3.9 µM
IC50 (Plasmodium falciparum [11]): 1.6 µM
IC50 (Plasmodium falciparum [2]): ≥ 10 µM
selectivity ratio [14]: > 12.9
selectivity ratio at 48 h [15]: > 10.2

SMILES: CCN(CC)CCCC(C)Nc1ccnc2cc(Cl)ccc12 (stereo unspecified) [CHLOROQUINE]
IC50 [4]: 3.46 µM

IC50 (Plasmodium falciparum [1]): ≥ 10 µM
IC50 (Plasmodium falciparum [2]): ≥ 10 µM
SMILES: COc1c(N2C[C@@H]3CCCN[C@@H]3C2)c(F)cc2c(=O)c(C(=O)O)cn(C3CC3)c12 [MOXIFLOXACIN]

SMILES: C=C[C@H]1CN2CC[C@H]1C[C@H]2[C@H](O)c1ccnc2ccc(OC)cc12 [QUININE]
IC50 (Plasmodium falciparum [3]): 0.571 µM
IC50 (Plasmodium falciparum [5]): 186 µM
IC50 (Plasmodium falciparum [6]): 456 µM
IC50 (Plasmodium falciparum [7]): 0.543 µM
IC50 (Plasmodium falciparum [8]; read-out: IC50): 0.65 µM
IC50 (Plasmodium falciparum [9]): 0.0058 µM
IC50 (Plasmodium falciparum [10]): 520 µM
IC50 (Plasmodium falciparum [12]): 0.0067 µM
IC50 (Plasmodium falciparum [13]; read-out: IC50): 0.428 µM

SMILES: C[C@H]1[C@H](OC(=O)CCC(=O)O)O[C@@H]2O[C@@]3(C)CC[C@H]4[C@H](C)CC[C@@H]1[C@@]24OO3 [ARTESUNATE]
IC50 (Plasmodium falciparum [3]): 0.002 µM
IC50 (Plasmodium falciparum [5]): 1.7 µM
IC50 (Plasmodium falciparum [6]): 2.1 µM
IC50 (Plasmodium falciparum [10]): 2.4 µM
IC50 (Plasmodium falciparum [11]): 2 µM
IC50 (Plasmodium falciparum [12]): 0.0018 µM

SMILES: C[C@H]1c2cccc(O)c2C(=O)C2=C(O)[C@]3(O)C(=O)C(C(N)=O)=C(O)[C@@H](N(C)C)[C@@H]3[C@@H](O)[C@@H]21 [DOXYCYCLINE]
IC50 (Plasmodium falciparum [3]): 12.9 µM
IC50 (Plasmodium falciparum [5]): 12 µM
IC50 (Plasmodium falciparum [6]): 1.2 µM
IC50 (Plasmodium falciparum [7]): 8.4 µM
IC50 (Plasmodium falciparum [8]; read-out: IC50): 9.7 µM
IC50 (Plasmodium falciparum [9]): 11.1 µM
IC50 (Plasmodium falciparum [10]): 10.7 µM
IC50 (Plasmodium falciparum [11]): 1.7 µM
IC50 (Plasmodium falciparum [12]): 14.9 µM
IC50 (Plasmodium falciparum [13]; read-out: IC50): 9.1 µM
IC50 (Plasmodium falciparum [16]; read-out: IC50): 13.3 µM

IC50 (Plasmodium falciparum [1]): ≥ 10 µM
IC50 (Plasmodium falciparum [2]): ≥ 10 µM
SMILES: Cc1c(F)c(N2CCNC(C)C2)cc2c1c(=O)c(C(=O)O)cn2C1CC1 (stereo unspecified) [GREPAFLOXACIN]
